The data set has as its system CCRIS mutagenicity, Ames/micronucleus/aberration tests. Briefly: CCRIS mutagenicity studies.

Consider 5 molecules from PubChem BioAssay AID1259407 (Chemical Carcinogenesis Research Information System (CCRIS), 2018).

Molecules are shown by their SMILES. Calls of active or inactive are those of the source. How the calls were made is not given here.

Consider `FC(F)(Cl)C(F)(F)Cl`, for which the mutagenic call runs as follows: (Test System: AMES SALMONELLA TYPHIMURIUM, Strain/Indicator: TA98, Metabolic Activation: NONE, Method: GAS EXPOSURE) “inactive; negative”; (Test System: AMES SALMONELLA TYPHIMURIUM, Strain/Indicator: TA98, Metabolic Activation: RAT LIVER S-9, PHENOBARBITAL AND BETA-NAPHTHOFLAVONE (40%), Method: GAS EXPOSURE) “inactive; negative”; (Test System: AMES SALMONELLA TYPHIMURIUM, Strain/Indicator: TA100, Metabolic Activation: NONE, Method: GAS EXPOSURE) “inactive; negative”; (Test System: AMES SALMONELLA TYPHIMURIUM, Strain/Indicator: TA100, Metabolic Activation: RAT LIVER S-9, PHENOBARBITAL AND BETA-NAPHTHOFLAVONE (40%), Method: GAS EXPOSURE) “inactive; negative”; (Test System: AMES SALMONELLA TYPHIMURIUM, Strain/Indicator: TA1535, Metabolic Activation: NONE, Method: GAS EXPOSURE) “inactive; negative”; (Test System: AMES SALMONELLA TYPHIMURIUM, Strain/Indicator: TA1535, Metabolic Activation: RAT LIVER S-9, PHENOBARBITAL AND BETA-NAPHTHOFLAVONE (40%), Method: GAS EXPOSURE) “inactive; negative”. Further, the mutagenic call is, setting by setting: (Test System: AMES SALMONELLA TYPHIMURIUM, Strain/Indicator: TA1537, Metabolic Activation: NONE, Method: GAS EXPOSURE) “inactive; negative”; (Test System: AMES SALMONELLA TYPHIMURIUM, Strain/Indicator: TA1537, Metabolic Activation: RAT LIVER S-9, PHENOBARBITAL AND BETA-NAPHTHOFLAVONE (40%), Method: GAS EXPOSURE) “inactive; negative”; (Test System: E.COLI, Strain/Indicator: WP2UVRA, Metabolic Activation: NONE, Method: GAS EXPOSURE) “inactive; negative”; (Test System: E.COLI, Strain/Indicator: WP2UVRA, Metabolic Activation: RAT LIVER S-9, PHENOBARBITAL AND BETA-NAPHTHOFLAVONE (40%), Method: GAS EXPOSURE) “inactive; negative”.

In the case of `F[B-](F)(F)F`, the mutagenic call (Test System: AMES SALMONELLA TYPHIMURIUM, Strain/Indicator: TA98, Metabolic Activation: NONE, Method: PREINCUBATION) is “inactive; negative”; the mutagenic call (Test System: AMES SALMONELLA TYPHIMURIUM, Strain/Indicator: TA98, Metabolic Activation: RAT, LIVER, S-9, KC 500, Method: PREINCUBATION) is “inactive; negative”; the mutagenic call (Test System: AMES SALMONELLA TYPHIMURIUM, Strain/Indicator: TA100, Metabolic Activation: NONE, Method: PREINCUBATION) is “inactive; negative”; the mutagenic call (Test System: AMES SALMONELLA TYPHIMURIUM, Strain/Indicator: TA100, Metabolic Activation: RAT, LIVER, S-9, KC 500, Method: PREINCUBATION) is “inactive; negative”; the mutagenic call (Test System: AMES SALMONELLA TYPHIMURIUM, Strain/Indicator: TA1535, Metabolic Activation: NONE, Method: PREINCUBATION) is “inactive; negative”; the mutagenic call (Test System: AMES SALMONELLA TYPHIMURIUM, Strain/Indicator: TA1535, Metabolic Activation: RAT, LIVER, S-9, KC 500, Method: PREINCUBATION) was “inactive; negative”. For the same molecule, the mutagenic call reads like this: (Test System: AMES SALMONELLA TYPHIMURIUM, Strain/Indicator: TA1537, Metabolic Activation: NONE, Method: PREINCUBATION) “inactive; negative”; (Test System: AMES SALMONELLA TYPHIMURIUM, Strain/Indicator: TA1537, Metabolic Activation: RAT, LIVER, S-9, KC 500, Method: PREINCUBATION) “inactive; negative”; (Test System: AMES SALMONELLA TYPHIMURIUM, Strain/Indicator: TA1538, Metabolic Activation: NONE, Method: PREINCUBATION) “inactive; negative”; (Test System: AMES SALMONELLA TYPHIMURIUM, Strain/Indicator: TA1538, Metabolic Activation: RAT, LIVER, S-9, KC 500, Method: PREINCUBATION) “inactive; negative”; (Test System: E. COLI, Strain/Indicator: WP2 UVRA, Metabolic Activation: NONE, Method: PREINCUBATION) “inactive; negative”; (Test System: E. COLI, Strain/Indicator: WP2 UVRA, Metabolic Activation: RAT, LIVER, S-9, KC 500, Method: PREINCUBATION) “inactive; negative”.

In the case of `C[C@H]1C[C@@]23CCC4C[C@](C)(C(=O)O)CC[C@@]4(C)[C@@H]2CC[C@]1(O)C3` (stereo partly drawn), the mutagenic call (Test System: AMES SALMONELLA TYPHIMURIUM, Strain/Indicator: TM677, Metabolic Activation: RAT, LIVER, S-9, AROCLOR 1254, Method: PREINCUBATION) is “inactive; negative”.

On to `CC(C)(C)NCC(O)COc1cccc2c1CC(O)C(O)C2` (stereo not drawn), for which the mutagenic call runs as follows: (Test System: AMES SALMONELLA TYPHIMURIUM, Strain/Indicator: TA98, Metabolic Activation: NONE, Method: STANDARD PLATE) “inactive; negative”; (Test System: AMES SALMONELLA TYPHIMURIUM, Strain/Indicator: TA98, Metabolic Activation: RAT, LIVER, S-9, AROCLOR 1254, Method: STANDARD PLATE) “inactive; negative”; (Test System: AMES SALMONELLA TYPHIMURIUM, Strain/Indicator: TA100, Metabolic Activation: NONE, Method: STANDARD PLATE) “inactive; negative”; (Test System: AMES SALMONELLA TYPHIMURIUM, Strain/Indicator: TA100, Metabolic Activation: RAT, LIVER, S-9, AROCLOR 1254, Method: STANDARD PLATE) “inactive; negative”; (Test System: UDS HUMAN HEPATOCYTES, Strain/Indicator: THY INCORP, Metabolic Activation: NONE, Method: AUTORADIOGRAPHY) “inactive; negative”; (Test System: UDS RAT HEPATOCYTES, Strain/Indicator: THY INCORP, Metabolic Activation: NONE, Method: AUTORADIOGRAPHY) “inactive; negative”.

Take `CCOC(=O)N(C)C`: the mutagenic call was “inactive; negative” (Test System: AMES SALMONELLA TYPHIMURIUM, Strain/Indicator: TA98, Metabolic Activation: NONE); “inactive; negative” (Test System: AMES SALMONELLA TYPHIMURIUM, Strain/Indicator: TA100, Metabolic Activation: NONE); “active; positive” (Test System: AMES SALMONELLA TYPHIMURIUM, Strain/Indicator: TA1535, Metabolic Activation: NONE); “active; positive” (Test System: AMES SALMONELLA TYPHIMURIUM, Strain/Indicator: TA1535, Metabolic Activation: S-9, AROCLOR 1254).
